The record followed here is PubChem BioAssay AID624330 (Southern Research Specialized Biocontainment Screening …, 2012).

This assay concerns the target Rac GTPase-activating protein 1 (Homo sapiens) (UniProt Q9H0H5). The assay can be described thus: MgcRacGAP GTPase-activating activity inhibitors, confirmation, biochemical, ADP Hunter fluorescence, primary and confirmatory (AID 624330).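 Note: fluorescence reports GDP produced by GAP-driven GTP hydrolysis.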 The settings on record: MgcRacGAP-stimulated Rac1 GTP hydrolysis, GST-tagged Rac1 F28L mutant substrate.

Sequence of Rac GTPase-activating protein 1 (Homo sapiens) (Q9H0H5 whole entry, looked up): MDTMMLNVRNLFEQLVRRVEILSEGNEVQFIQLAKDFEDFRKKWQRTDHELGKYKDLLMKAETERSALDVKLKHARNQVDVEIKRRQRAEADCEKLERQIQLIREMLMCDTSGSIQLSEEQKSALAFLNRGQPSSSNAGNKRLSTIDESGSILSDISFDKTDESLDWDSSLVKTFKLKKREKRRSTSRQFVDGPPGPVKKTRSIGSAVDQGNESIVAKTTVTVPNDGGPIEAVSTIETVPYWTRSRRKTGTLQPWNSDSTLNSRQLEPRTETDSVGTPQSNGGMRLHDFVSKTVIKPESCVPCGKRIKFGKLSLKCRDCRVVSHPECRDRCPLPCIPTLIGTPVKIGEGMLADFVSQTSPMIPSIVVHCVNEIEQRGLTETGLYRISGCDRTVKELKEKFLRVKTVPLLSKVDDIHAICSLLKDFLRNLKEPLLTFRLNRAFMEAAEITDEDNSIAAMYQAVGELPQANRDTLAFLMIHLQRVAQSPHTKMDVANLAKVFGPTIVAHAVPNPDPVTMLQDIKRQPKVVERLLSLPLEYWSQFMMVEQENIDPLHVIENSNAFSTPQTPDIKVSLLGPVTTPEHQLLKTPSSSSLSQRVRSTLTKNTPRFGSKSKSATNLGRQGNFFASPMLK

With `C#CCOCCOCCOCCNc1nc(N2CCN(C(=O)CCCCCCCCCCNC(=O)[C@@H](CCSC)n3cc(CCO)nn3)CC2)nc(N2CCN(C(=O)CCCCCCCCCCNC(=O)[C@H](CO)n3cc(CCCCCN)nn3)CC2)n1`, the IC50 was 49.6 µM. Next, `C#CCOCCOCCOCCNc1nc(N2CCN(C(=O)[C@H](CCCCN)n3cc([C@@H](N)C(C)CC)nn3)CC2)nc(N2CCN(C(=O)[C@H](Cc3cc4ccccc4[nH]3)n3cc([C@@H](N)C(C)CC)nn3)CC2)n1` (some centres not stated): 67.9 µM.
